Like-named read-outs stand apart in the source and are kept apart here.

As a reminder, the EC50 is the concentration needed to bring the measured effect to its halfway point. What is called CC50 is the concentration at which the toxic effect on the cells reaches its halfway point. The IC50 is the midpoint of a concentration-inhibition curve.

The test system of one data set is HIV-1. To be noted: previously reported; cited from earlier work.
Data set [1] relates to HIV-1IIIB infected H9 cells (H9/HIV-1IIIB) and MT-2 cells. As to the kind of experiment: HIV-1 mediated cell-cell fusion (dye transfer assay). To be noted: H9/HIV-1IIIB with MT-2 cells; read-out: EC50 (μM) (M ± SD) for inhibition of Cell fusion. The class given is cell-based. Here is the method: Inhibition of cell-cell fusion. A dye transfer assay was used for detection of HIV-1 mediated cell fusion as previously described (11,25,26). H9/HIV-1IIIB cells were labeled with a fluorescent reagent, Calcein-AM (Molecular Probes, Inc., Eugene, Oreg.) and then incubated with MT-2 cells (ratio=1:5) in 96-well plates at 37° C. for 2 hrs in the presence or absence of compounds tested. The fused and unfused Cacein-labeled HIV-1-infected cells were counted under an inverted fluorescence microscope (Zeiss, Germany) with an eyepiece micrometer disc. The percentage of inhibition of cell fusion and the IC50 values were calculated as previously described (11).

In data set [2] the test system is HIV-1 IIIB. Here is the method:
Assessment of anti-HIV-1 infectivity. The inhibitory activity of compounds on infection by laboratory-adapted HIV-1 strains was determined as previously described (34). […] For the time-of-addition assay, compounds were added at various time post-infection. Then the culture supernatants were removed and fresh media were added. On the fourth day post-infection, 100 μl of culture supernatants were collected from each well, mixed with equal volumes of 5% Triton X-100 and assayed for p24 antigen, which was quantitated by ELISA (23). Briefly, the wells of polystyrene plates (Immulon 1B, Dynex Technology, Chantilly, Va.) were coated with HIV immunoglobulin (HIVIG), which was prepared from plasma of HIV-seropositive donors with high neutralizing titers against HIV-1IIIB as previously described (36) in 0.085 M carbonate-bicarbonate buffer (pH 9.6) at 4° C. overnight, followed by washes with PBS-T buffer (0.01M PBS containing 0.05% Tween-20) and blocking with PBS containing 1% dry fat-free milk (Bio-Rad Inc., Hercules, Calif.). Virus lysates were added to the wells and incubated at 37° C. for 1 h. […] Reactions were terminated by addition of 1N H2SO4. […] Recombinant protein p24 (US Biological, Swampscott, Mass.) was included for establishing standard dose response curve.

Data set [3] deals with HIV-1 IIIB. The experiment in a line: HIV-1-mediated cytopathic effect (CPE). The class given is cell-based. Particulars: read-out: EC50 (μM) (M ± SD) for inhibition of CPE. An excerpt:
We thus purchased these compounds and tested their inhibitory activity on: 1) HIV-1 replication (p24 production); 2) HIV-1-mediated cytopathic effect (CPE); and 3) HIV-1 Env-induced cell-cell fusion; and their cytotoxicity to MT-2 cells.
For orientation: Damage to the host cells serves as the signal in cytopathic effect assays.

The test system of another data set is MT-2 cells. Particulars: read-out: Cytotoxicity CC50 (μM) (M ± SD); MT-2 cells. Here is the method: Detection of in vitro cytotoxicity. The in vitro cytotoxicity of compounds for MT-2 cells was measured by a colorimetric method using XTT tetrazolium dye as previously described (21). Briefly, 100 μl of a compound at a graded concentration was added to equal volume of cells (5×10^5/ml) in a well of 96-well plates. After incubation at 37° C. for 4 days, XTT (1 mg/ml; […]; PolySciences, Inc., Warrington, Pa.) was added. Four hours later, the soluble intracellular formazan was quantitated colorimetrically at 450 nm with a reference at 570 nm.

In data set [4] the target is gp41 six-helix bundle formation between N36 and C34 (Human immunodeficiency virus type 1 group M subtype B, UniProt P04578). Here is the method: ELISA for screening for compounds that inhibit the gp41 six-helix bundle formation. A sandwich ELISA as previously described (27) was used to screen for compounds that inhibit the gp41 six-helix bundle formation. Briefly, peptide N36 (2 μM) was pre-incubated with a test compound at the indicated concentrations at 37° C. for 30 min, followed by addition of C34 (2 μM). In the control experiments, N36 was pre-incubated with C34 at 37° C. for 30 min, followed by addition of the test compound. After incubation at 37° C. for 30 min, the mixture was added to wells of a 96-well polystyrene plate (Costar, Corning Inc., Corning, N.Y.) which were precoated with IgG (2 μg/ml) purified from rabbit antisera directed against the N36/C34 mixture. […] Absorbance at 450 nm was measured using an ELISA reader (Ultra 384, Tecan, Research Triangle Park, N.C.). […] Chou (Sloan-Kettering Cancer Center, New York, N.Y.).
A model system of the gp41 six-helix bundle was established by mixing the N— and C-peptides at equal molar concentrations (16).

The test system of data set [5] is HIV-1IIIB-infected H9 cells (H9/HIV-1IIIB) cocultured with MT-2 cells. To be noted: single dose 25 μg/ml, HTS.
Method: Syncytium-formation assay for screening HIV-1 fusion inhibitors. HIV-1IIIB-infected H9 cells (H9/HIV-1IIIB) at 2×10^5/ml were cocultured with MT-2 cells (2×10^6/ml) in the presence of compounds to be screened (final concentration of compound: 25 μg/ml) in a 96-well plate at 37° C. for 2 days. HIV-1 induced syncytium formation was observed under an inverted microscope and scored as “−” (no syncytium was observed), “±” (about 50% syncytia were inhibited), and “+” (no syncytium formation was inhibited). The compounds scored with “−” and “±” were selected for further screening by ELISA for inhibitors against the gp41 six-helix bundle formation.
The next data set deals with HIV-1IIIB in MT-2 cells. As to the kind of experiment: Time-of-addition assay (p24 production). The class given is cell-based. To be noted: 0.1 μM. Here is the method: FIG. 1 NB-206 and its analogs inhibited HIV-1 entry. Inhibition of HIV-1 entry was determined by a time-of-addition assay. NB-206 (2.5 μM) and its analog NB-231 (2.5 μM) were added to MT-2 cells at different intervals post-infection by HIV-1IIIB. AZT (0.1 μM), a reverse transcriptase inhibitor, was included as a control. Each sample was tested in triplicate.
Assessment of anti-HIV-1 infectivity. […] Reactions were terminated by addition of 1N H2SO4.
A time-of-addition assay was carried out to determine whether NB-206 and its analogs are HIV-1 entry inhibitors. MT-2 cells were incubated with HIV-1IIIB at 37° C. for 0, 1, 2, 3, 4, 6, and 8 hrs, respectively, before addition of NB-206 and NB-231 at 2.5 μM. AZT (0.1 μM) was used as a control. After culture for another 2 hrs, the cells were washed to remove the free-virus and compounds. The supernatants were collected on day 4 post-infection for measurement of p24 production.

Chain of gp41 six-helix bundle formation between N36 and C34 (P04578 546-581): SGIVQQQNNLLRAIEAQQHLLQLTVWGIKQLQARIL

Consider `COc1ccc(S(=O)(=O)[O-])cc1N=Nc1c(S(=O)(=O)[O-])cc2cc(Nc3nc(Nc4ccccc4)nc(Nc4cc(C)c(N=Nc5cc(S(=O)(=O)[O-])cc6cc(S(=O)(=O)[O-])cc(O)c56)cc4OC)n3)ccc2c1O.[Na+].[Na+].[Na+].[Na+]` [ADS-J1], for which, in the data set with HIV-1, the anti-HIV-1 activities entry is “micromolar levels”.
On to `O=C(O)c1cccc(-c2ccc(/C=C3\SC(=S)N(c4cccc(Cl)c4)C3=O)o2)c1` [NB145], for which the EC50 in data set [1] came out at 1.77 ± 0.09 µM; in the data set with HIV-1 IIIB [2] (read-out: EC50 (μM) (M ± SD) for inhibition of p24, HIV-1 IIIB, MT-2 cells), 0.18 ± 0.02 µM; with HIV-1 IIIB [3] it was 0.18 ± 0.006 µM. For the same compound, the “SI (CC50/EC50)” value in the data set with HIV-1 IIIB [2] (selectivity index) was 261.5. Besides, the CC50 in the data set with MT-2 cells worked out at 47.5 ± 6.37 µM. Also, in data set [4] (single dose 25 μg/ml, HTS), the “inhibition of six-helix bundle formation between N36 and C34” value was “completely inhibited”. Further, the “inhibition of HIV-1 mediated syncytium formation” value in data set [5] is on record as “completely inhibited”.
With `Cc1cn([C@H]2C[C@H](N=[N+]=[N-])[C@@H](CO)O2)c(=O)[nH]c1=O` [AZT], the “inhibition of HIV-1 replication, added 8 hrs post-infection” value in the data set on HIV-1IIIB in MT-2 cells is recorded as “still effective”.
For the compound `O=C(O)c1cccc(-c2ccc(/C=C3\SC(=S)N(c4cccc(C(F)(F)F)c4)C3=O)o2)c1` [NB154], the IC50 in data set [4] (read-out: IC50 for inhibition of six-helix bundle formation between N36 and C34, sandwich ELISA, FIG. 3) came out at 1.56 ± 0.12 µM.
